For the assay, the target named is Proto-oncogene tyrosine-protein kinase receptor Ret [V804M] (Human, UniProt P07949, V804M). The assay is described as follows: Kinase Activity Assay.
Chain of Proto-oncogene tyrosine-protein kinase receptor Ret [V804M] (P07949 29-1114 V804M limits assumed): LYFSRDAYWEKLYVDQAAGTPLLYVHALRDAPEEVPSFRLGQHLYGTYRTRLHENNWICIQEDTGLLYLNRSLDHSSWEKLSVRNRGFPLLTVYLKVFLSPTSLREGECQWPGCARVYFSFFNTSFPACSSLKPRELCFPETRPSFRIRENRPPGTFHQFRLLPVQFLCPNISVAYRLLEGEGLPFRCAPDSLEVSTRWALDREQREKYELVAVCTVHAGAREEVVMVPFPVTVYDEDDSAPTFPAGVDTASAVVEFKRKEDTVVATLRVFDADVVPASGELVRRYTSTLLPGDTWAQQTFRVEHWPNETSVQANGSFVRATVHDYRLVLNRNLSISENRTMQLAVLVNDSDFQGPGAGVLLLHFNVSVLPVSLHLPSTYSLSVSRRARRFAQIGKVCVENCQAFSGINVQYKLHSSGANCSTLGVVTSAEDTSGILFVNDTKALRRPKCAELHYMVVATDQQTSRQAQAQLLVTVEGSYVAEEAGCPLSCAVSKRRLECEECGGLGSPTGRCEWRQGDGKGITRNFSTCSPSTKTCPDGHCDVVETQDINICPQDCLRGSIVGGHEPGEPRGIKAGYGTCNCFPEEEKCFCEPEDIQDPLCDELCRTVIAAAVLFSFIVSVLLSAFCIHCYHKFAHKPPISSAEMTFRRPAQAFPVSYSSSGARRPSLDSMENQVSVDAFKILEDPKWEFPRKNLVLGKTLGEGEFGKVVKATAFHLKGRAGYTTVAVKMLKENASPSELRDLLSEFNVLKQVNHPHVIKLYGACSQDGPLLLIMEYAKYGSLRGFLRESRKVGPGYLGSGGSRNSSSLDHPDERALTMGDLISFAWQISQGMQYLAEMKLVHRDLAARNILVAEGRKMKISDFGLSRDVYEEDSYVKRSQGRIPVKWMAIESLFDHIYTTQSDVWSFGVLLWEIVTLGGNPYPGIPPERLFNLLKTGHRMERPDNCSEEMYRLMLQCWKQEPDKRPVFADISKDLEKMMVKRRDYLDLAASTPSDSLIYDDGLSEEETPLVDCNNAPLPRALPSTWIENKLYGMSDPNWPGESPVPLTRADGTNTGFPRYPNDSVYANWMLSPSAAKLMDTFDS

On to `COc1ccc(CN2C3CC2CN(c2ccc(-c4cc(OC[C@@H]5CNCCO5)cn5nc6[nH]ncc6c45)cn2)C3)cn1` [US12338253, Compound 17], for which the midpoint of inhibition, the IC50, lay at 0.1 nM.

As a reminder, the IC50 is the concentration at which inhibition is half-maximal. Read a low IC50 as greater potency in that assay.

The values above are taken from BindingDB's records for patent US12338253 (Applied Pharmaceutical Science, 2025).
